The text below walks through data of US20250304587A1, “WEE1 INHIBITOR, PREPARATION THEREFOR AND USE THEREOF” (JIANGSU TASLY DIYI PHARMACEUTICAL CO., LTD., priority 2022, published 2025).

Structures are written as SMILES.

For orientation: IC50 means the concentration needed to halve the response being measured. As usually defined, the TGI is the reduction of tumour growth relative to the control group. High values mean much slowing of growth, low ones little slowing of growth.

In one data set the test system is BxPC3 cells. Nature of the data set: Cell Titer-Glo anti-proliferation, BxPC3 cells. Type of data set: cell-based, human. To be noted: Homo sapiens, BXPC-3, 72 h, 3 days, read-out: Anti-proliferative activity BxPC3 (IC50 class). In a few lines:
(§1)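 Each line was exposed to graded compound concentrations for 3 days at 37 °C, 5% CO2, with final DMSO at 0.2%. Viability was measured by Cell Titer-Glo luminescence, with untreated cells as the maximum and medium as the minimum signal. IC50 came from a variable-slope log(inhibitor)-response fit.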

A further data set deals with HT-29 cells. The data set is described as follows: Cell Titer-Glo anti-proliferation, HT-29 cells. As to conditions: Homo sapiens, HT-29, 72 h, 3 days, read-out: Anti-proliferative activity HT-29 (IC50 class). Type of data set: cell-based, human. In a few lines:
as §1

A further data set has as its system HK2 cells. The data set is described as follows: Cell Titer-Glo anti-proliferation, normal cells HK2. Type of data set: cell-based. As to conditions: Homo sapiens, HK-2. In a few lines:
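Cells were exposed to serial compound concentrations (0.2% DMSO final) for 3 days at 37 °C, 5% CO2, then lysed with Cell Titer-Glo and read by luminescence. Inhibition was referenced to untreated-cell and medium-only controls, and IC50 came from a four-parameter variable-slope log(inhibitor)–response fit.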
A general note: In ATP-based viability assays light output follows the ATP content of the culture.

Data set [1] can be described thus: Metabolic stability in liver microsomes, mouse. Type of data set: in vitro ADME. Here is the method:
(§2) Test Example 3: Evaluation of the Metabolic Stability of Liver Microsomes (Mouse and Human) In Vitro Microsomes were taken out from the −80° C. refrigerator, rapidly melted in a 37° C. water bath and placed on ice until ready to use. The test article was diluted with DMSO to prepare a 10 mM stock solution, and then diluted with acetonitrile to a 0.5 mM secondary stock solution. […] NADPH was diluted with Buffer C to a working solution of 6 mM for the starter solution. An acetonitrile solution containing an internal standard was prepared as the precipitant, and Verapamil-HCl was chosen as the internal standard at a concentration of 4 ng/ml. […] A separate plate with pointed bottom wells, noted as a precipitation plate, was added with 135 μL precipitant per well; 0 h samples were transferred to the plate after 10 min incubation and 15 μL of starter solution was added; the plate was placed on ice before centrifugation. The diluted starter solution was added in sufficient quantity to the dispensing plate to facilitate the multichannel pipette aspiration operation. The reaction was carried out on a warm incubation shaker and 15 μL of starter solution/sample is added to the plate using a multichannel pipette. The reaction was mixed with a slight shake to initiate the reaction, which was accurately timed and recorded using a timer; After the reaction time had elapsed, all the solution in the plate was aspirated using the multichannel pipette and added to the precipitation plate to terminate the reaction at that point in time. After all reactions had been terminated, the plates were shaken for ten minutes on a plate shaker at 600 rpm to precipitate the protein. The plate was centrifuged at 4° C. for 15 minutes at maximum rpm. 80 μL of supernatant was taken, 320 μL of pure water was added and mixed for LC-MS analysis.
A general note: Liver microsomes are vesicles of endoplasmic reticulum, rich in cytochrome P450 enzymes.

Data set [2] can be described thus: Metabolic stability in liver microsomes, human. It is filed as in vitro ADME. The procedure: as §2
Data set [3] in a line: Plasma protein binding (equilibrium dialysis), human. Type of data set: in vitro ADME. As to conditions: 5 h dialysis, read-out: Plasma Protein binding (PPB) Human (converted). Background: In equilibrium dialysis free small molecules cross a membrane that holds back macromolecules.
For a further data set, the target named is CYP1A2 (Homo sapiens (Human), UniProt P05177). Nature of the data set: Cytochrome P450 inhibition (fluorescence), CYP1A2. It is filed as in vitro ADME. To be noted: read-out: IC50 CYP1A2. The procedure:
(§3) Enzymatic experiments were performed to quantify the inhibition of CYP450 enzyme activity of each isoform of CYP450 by small molecule inhibitors through fluorescence generated by the oxidation of the substrate by cytochrome P450. […] The Solution B composition used for the experiment was: 40 U/mL G6PDH (Sigma-aldrich, Cat #G6378). The substrate mix was 0.05× Solution A, 0.01× Solution B, 50 mM Potassium Phosphate, 0.01 mM BOMCC/0.01 mM EOMCC/0.001 mM DBOMF. […] The data were analyzed and processed using GraphPad Prism 6 software to obtain IC50 values.

Another data set addresses CYP2C9 (Homo sapiens (Human), UniProt P11712). The data set is described as follows: Cytochrome P450 inhibition (fluorescence), CYP2C9. Type of data set: in vitro ADME. As to conditions: read-out: IC50 CYP2C9. The procedure:
as §3

The next data set has as its target CYP2C19 (Homo sapiens (Human), UniProt P33261). Nature of the data set: Cytochrome P450 inhibition (fluorescence), CYP2C19. As to conditions: read-out: IC50 CYP2C19. Type of data set: in vitro ADME. The procedure:
as §3

Another data set addresses CYP2C8 (Homo sapiens (Human), UniProt P10632). Nature of the data set: Cytochrome P450 inhibition (fluorescence), CYP2C8. As to conditions: read-out: IC50 CYP2C8. Type of data set: in vitro ADME. Here is the method: as §3
Data set [4] concerns human colon cancer HT-29 cells xenograft. Nature of the data set: Anti-tumor efficacy, HT-29 xenograft (CDX model). It is filed as in vivo, female BALB/c nude mice. As to conditions: HT-29 model, after 24 days. Here is the method:
Experimental method: BALB/c nude mice (provided by Charles River) were selected, 7-8 weeks old and weighing 19-22 g.
The prepared and cultured HT-29 cells were counted, and 5×10^6 HT-29 cells were mixed in 0.1 mL PBS solution and inoculated subcutaneously on the right wing of mice. When the cells became tumors and the average tumor volume reached 120 mm^3, they began to be grouped and administered. […] The experimental indicator was to check whether the tumor growth was inhibited. The formula for calculating the tumor volume was: V=0.5a×b^2, where a and b respectively indicated the long and short diameters of the tumor.
The anti-tumor effects of the compounds were evaluated by TGI (%).

The next data set deals with plasma protein. Nature of the data set: Plasma protein binding (equilibrium dialysis), human. Type of data set: in vitro ADME. As to conditions: 1 μM, 5 h dialysis.

Chain of CYP2C9 (P11712 whole entry): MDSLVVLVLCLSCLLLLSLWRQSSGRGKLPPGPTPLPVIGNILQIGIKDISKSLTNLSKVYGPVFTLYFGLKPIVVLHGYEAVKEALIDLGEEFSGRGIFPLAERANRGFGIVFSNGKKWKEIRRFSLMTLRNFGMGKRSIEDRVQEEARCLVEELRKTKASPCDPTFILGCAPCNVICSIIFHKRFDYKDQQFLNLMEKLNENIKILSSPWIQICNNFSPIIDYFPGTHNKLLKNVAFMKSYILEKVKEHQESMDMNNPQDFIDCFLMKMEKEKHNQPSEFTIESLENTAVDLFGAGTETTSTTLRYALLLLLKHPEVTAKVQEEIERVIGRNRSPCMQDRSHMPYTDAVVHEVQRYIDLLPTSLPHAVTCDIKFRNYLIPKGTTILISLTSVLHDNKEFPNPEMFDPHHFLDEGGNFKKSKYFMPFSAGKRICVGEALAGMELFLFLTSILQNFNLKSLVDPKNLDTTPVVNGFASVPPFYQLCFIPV
Chain of CYP1A2 (P05177 whole entry, canonical isoform): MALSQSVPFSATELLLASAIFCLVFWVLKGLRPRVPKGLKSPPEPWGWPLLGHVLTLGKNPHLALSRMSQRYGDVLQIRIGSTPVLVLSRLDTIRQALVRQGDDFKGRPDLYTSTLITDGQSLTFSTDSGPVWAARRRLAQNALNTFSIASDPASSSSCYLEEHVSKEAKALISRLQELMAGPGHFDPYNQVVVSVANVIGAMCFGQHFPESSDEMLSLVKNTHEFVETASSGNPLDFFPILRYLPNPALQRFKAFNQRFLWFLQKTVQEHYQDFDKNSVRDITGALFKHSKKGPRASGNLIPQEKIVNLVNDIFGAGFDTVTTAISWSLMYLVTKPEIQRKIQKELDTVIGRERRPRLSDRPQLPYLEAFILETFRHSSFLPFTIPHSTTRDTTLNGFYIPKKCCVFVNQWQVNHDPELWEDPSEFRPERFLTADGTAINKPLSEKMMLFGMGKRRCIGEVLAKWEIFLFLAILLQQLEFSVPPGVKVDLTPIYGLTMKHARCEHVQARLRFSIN
Chain of CYP2C8 (P10632 whole entry): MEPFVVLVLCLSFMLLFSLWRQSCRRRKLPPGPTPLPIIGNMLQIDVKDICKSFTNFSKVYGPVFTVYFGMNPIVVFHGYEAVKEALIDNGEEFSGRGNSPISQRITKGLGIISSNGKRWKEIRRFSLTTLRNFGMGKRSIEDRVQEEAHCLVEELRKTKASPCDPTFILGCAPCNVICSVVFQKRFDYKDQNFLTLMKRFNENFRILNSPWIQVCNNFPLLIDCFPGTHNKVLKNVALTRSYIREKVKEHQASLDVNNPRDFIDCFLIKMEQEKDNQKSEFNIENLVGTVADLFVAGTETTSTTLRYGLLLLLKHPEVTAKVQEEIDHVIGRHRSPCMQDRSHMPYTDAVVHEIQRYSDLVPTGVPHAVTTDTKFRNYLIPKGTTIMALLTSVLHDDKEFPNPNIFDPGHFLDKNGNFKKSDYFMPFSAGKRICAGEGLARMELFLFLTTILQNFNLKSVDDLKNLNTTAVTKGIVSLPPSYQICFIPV
Chain of CYP2C19 (P33261 whole entry): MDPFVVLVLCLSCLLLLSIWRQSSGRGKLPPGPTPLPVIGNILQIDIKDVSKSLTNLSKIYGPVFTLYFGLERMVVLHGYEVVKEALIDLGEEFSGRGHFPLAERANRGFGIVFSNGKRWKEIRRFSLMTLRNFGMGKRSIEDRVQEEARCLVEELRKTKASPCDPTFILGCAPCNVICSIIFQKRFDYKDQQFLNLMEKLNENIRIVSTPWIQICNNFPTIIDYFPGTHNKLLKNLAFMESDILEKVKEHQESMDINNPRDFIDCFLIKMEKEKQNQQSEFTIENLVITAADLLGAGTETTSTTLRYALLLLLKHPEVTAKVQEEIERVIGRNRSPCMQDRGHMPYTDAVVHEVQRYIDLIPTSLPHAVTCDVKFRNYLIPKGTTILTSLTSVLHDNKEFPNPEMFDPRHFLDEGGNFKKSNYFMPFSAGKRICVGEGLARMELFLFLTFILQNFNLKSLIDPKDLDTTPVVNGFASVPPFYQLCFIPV

Take `C=CCn1c(=O)c2cnc(Nc3ccc(N4CCN(C)CC4)cc3)nc2n1-c1cccc(C(C)(C)O)n1` [AZD1775, reference compound]: the half-maximal inhibitory concentration (IC50) in the data set on BxPC3 cells is 100 to 1000 nM; with HT-29 cells it was 100 to 1000 nM; in the data set with HK2 cells it was 260 nM; on CYP1A2, more than 10000 nM; on CYP2C9, more than 10000 nM; at CYP2C19 it was 1000 to 10000 nM. The IC50 on CYP2C8 was more than 10000 nM. Also, the half-life at 1 µM in [1] (read-out: T1/2 liver microsomes Mouse) was 26 min; in data set [2] (read-out: T1/2 liver microsomes Human), 38.1 min. Further, the fraction unbound at 5 h, 1 µM in data set [3] is 0.336. In addition, the tumour growth inhibition (TGI) in [4] (60 mg/kg qd) is reported as 54.5%.
Take `[2H][C@]1(O)c2nc(-n3c4nc(Nc5ccc(N6CCC7(CCN(C)CC7)CC6)cc5)ncc4c(=O)n3CC=C)ccc2CCC12CC2` [Compound 37b]: the “T1/2 liver microsomes Mouse” value in data set [1] is 37.8 min. The “T1/2 liver microsomes Human” value in data set [2] is more than 120 min. The “Plasma Protein binding (PPB) Human” value with plasma protein is listed as 77.58%. In addition, the TGI in data set [4] (30 mg/kg qd) came to 34.7%; in [4] (60 mg/kg qd), 57.7%; in [4] (120 mg/kg qd), 100.0%.
